Key:
[1] = biological target: human alpha1 nicotinic acetylcholine (nACh) receptor (Homo sapiens, UniProt P02708+Q07001); test: Nicotinic acetylcholine receptor antagonism assay (IONFlux automated patch clamp); format: cell-based; conditions: for Emax at 33.3 µM: maximum percentage antagonism at highest concentration tested, read-out: Maximum Response (%); for IC50: nAChR antagonism, stimulated with ACh, average if more than one run
Source text: Cells expressing human alpha1 nicotinic acetylcholine (nACh) receptor (nAChR) were washed and dissociated using Trypsin containing buffer. Cells were then washed and seeded at a density of 3-5 million cells/mL and allowed to grow for 3 days. […] The receptor was then stimulated via addition of acetylcholine (ACh) and activation of the receptor was monitored via the IONFlux automated patch clamp system. IonFlux Data Analyzer software was utilized to perform leak subtraction and measure (min) peak current amplitude.
Data processing: (1) Current values recorded for vehicle only applications in individual traps/patterns were subtracted from corresponding current amplitude values for control, test article and control+test article. (2) Control response was calculated as % of the average response of the 3rd out of total 3 ACh (10 mM) applications alone. In rare situations, if the 3rd ACh response was obscured due to technical artifacts, the 2nd and/or 1st ACh (10 mM) application was considered as control. The peak current amplitude generated in the presence of each test article concentration was then used to calculate the % inhibition as compared to control response (10 mM ACh alone). These estimates were further corrected for vehicle response and run down corrected by normalizing with time matched control responses (10 mM ACh alone). The corrected percentages were then fit with a non-linear function in GraphPad Prism 6 (or later versions) to determine the IC50.
Exclusion criteria: (i) any n's with poor recording quality, (ii) control current amplitude <500 pA or (iii) significant outliers, as determined by the Grubbs' test.
ARMs compounds of Formula (I) of the invention were tested for antagonism of the nAChR in the above assay in […] experimental runs and the results are shown in Table 5 below. Antagonistic activity of the compounds of Formula (I) of the invention is reported as an IC50 value (half maximal inhibitory concentration) and the maximum percentage antagonism observed at the highest concentration of compound of Formula (I) tested, as indicated in Table 5. For compounds tested in more than one experimental run, the IC50 value is reported as an average.

[2] = biological target: T1, CHOK1 cells engineered to overexpress human CCR2 (Homo sapiens, UniProt P41597); test: Antibody dependent cellular cytotoxicity (ADCC) reporter assay; format: cell-based; conditions: with anti-cotinine antibody (SEQ ID NO: 11/12, human IgG1 Fc S239D/I332E); Jurkat FcγRIIIa NFAT-luciferase reporter cells; 12-18 hours; average if more than one run; read-out: ADCC Reporter Assay pEC50 (converted)
T1 construct: expressed in transfected cells; host or cells: CHOK1 cells
Procedure: An antibody dependent cellular cytoxocity reporter assay was conducted using the following four assay components: (i) ARM compound of Formula (I) targeting CCR2 (concentrations ranging from 1 pM to 10 μM) (ii) anti-cotinine antibody having a heavy chain sequence of SEQ ID NO: 11 and a light chain sequence of SEQ ID NO: 12 (rabbit variable region with human IgG1 Fc domain containing a DE mutation (S239D/I332E)) (concentrations ranging from 0.01 μg/mL to 200 μg/mL); (iii) target cells: CHOK1 cells engineered to overexpress either human CCR2 (typically 1000-20,000 cells perwell) and (iv) reporter cells: Jurkat cells engineered to express FcγRIIIa with the reporter gene luciferase under the control of the NFAT promoter (typically 3000-75,000 cells per well). Reagents were combined in a final volume of 20 μL in a 384—well tissue culture treated plate. All four assay components were incubated together for about 12-18 hours. Thereafter, BioGlo Detection reagent (Promega) was added to the wells to lyse the cells and provide a substrate for the luciferase reporter protein. Luminescence signal was measured on a microplate reader and signal:background was calculated by dividing the signal of a test well by the signal obtained when no ARM compound of Formula (I) was added. EC50 calculations were done using Graphpad Prism Software, specifically a nonlinear regression curve fit (Y=Bottom+(Top−Bottom)/(1+10 ^((Log EC50−X)*HillSlope))).
ARMs compounds of Formula (I) of the invention were tested for ADCC activity in the above assay in or more experimental runs and the results are shown in Table 3 below. Potency of the compounds of Formula (I) of the invention is reported as a pEC50 value. The pEC50 value is the negative log of the EC50 value, wherein the EC50 value is the half maximal effective concentration measured in molar (M). For compounds tested in more than one experimental run, the pEC50 value is reported as an average.

human alpha1 nicotinic acetylcholine (nACh) receptor, sequence (P02708 21-457): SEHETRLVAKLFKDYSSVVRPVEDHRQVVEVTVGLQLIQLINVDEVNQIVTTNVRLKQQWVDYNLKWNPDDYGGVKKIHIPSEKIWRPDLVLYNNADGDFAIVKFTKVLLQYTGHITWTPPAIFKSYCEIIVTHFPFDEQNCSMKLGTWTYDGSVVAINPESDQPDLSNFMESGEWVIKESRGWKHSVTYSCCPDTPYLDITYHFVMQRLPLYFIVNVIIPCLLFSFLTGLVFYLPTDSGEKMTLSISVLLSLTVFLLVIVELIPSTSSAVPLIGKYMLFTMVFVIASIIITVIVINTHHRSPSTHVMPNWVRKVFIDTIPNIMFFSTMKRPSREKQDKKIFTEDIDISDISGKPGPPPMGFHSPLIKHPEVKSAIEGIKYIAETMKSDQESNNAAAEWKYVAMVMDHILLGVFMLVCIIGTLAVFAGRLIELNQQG
human alpha1 nicotinic acetylcholine (nACh) receptor, sequence (P11230 24-501 partner): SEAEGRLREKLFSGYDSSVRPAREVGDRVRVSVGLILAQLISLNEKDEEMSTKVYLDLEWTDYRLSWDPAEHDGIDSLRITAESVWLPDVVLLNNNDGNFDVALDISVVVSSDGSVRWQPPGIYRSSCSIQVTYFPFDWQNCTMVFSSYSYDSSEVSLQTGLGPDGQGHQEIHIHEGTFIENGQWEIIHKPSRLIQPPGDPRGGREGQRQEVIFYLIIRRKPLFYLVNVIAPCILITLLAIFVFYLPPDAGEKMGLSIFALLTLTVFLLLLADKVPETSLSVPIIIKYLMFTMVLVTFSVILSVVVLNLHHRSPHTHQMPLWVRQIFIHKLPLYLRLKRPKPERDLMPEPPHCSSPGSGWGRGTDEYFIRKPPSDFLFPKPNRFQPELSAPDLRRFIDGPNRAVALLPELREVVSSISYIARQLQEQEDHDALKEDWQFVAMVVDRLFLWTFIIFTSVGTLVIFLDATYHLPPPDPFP
human alpha1 nicotinic acetylcholine (nACh) receptor, sequence (Q07001 22-517): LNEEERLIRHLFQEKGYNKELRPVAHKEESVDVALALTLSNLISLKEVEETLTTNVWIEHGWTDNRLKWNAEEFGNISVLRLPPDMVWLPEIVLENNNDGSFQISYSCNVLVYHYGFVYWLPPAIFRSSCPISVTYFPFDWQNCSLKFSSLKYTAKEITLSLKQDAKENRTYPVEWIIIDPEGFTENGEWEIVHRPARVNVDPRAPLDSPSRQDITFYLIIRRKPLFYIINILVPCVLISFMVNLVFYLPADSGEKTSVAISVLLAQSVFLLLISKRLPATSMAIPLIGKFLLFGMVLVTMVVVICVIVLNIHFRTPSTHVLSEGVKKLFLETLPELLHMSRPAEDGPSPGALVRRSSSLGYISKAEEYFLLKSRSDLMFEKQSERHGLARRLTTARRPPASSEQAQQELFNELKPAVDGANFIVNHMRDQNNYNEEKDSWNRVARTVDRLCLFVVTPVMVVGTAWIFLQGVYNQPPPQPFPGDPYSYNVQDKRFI

Row | Compound | Emax at 33.3 µM [1] [%] | IC50 [1] [µM] | EC50 [2] [nM]
1 | CC(=O)N[C@@H]1C[C@H](NC(C)(C)C)CC[C@@H]1N1CC[C@H](Nc2nc(CCCCNC(=O)[C@H]3CC[C@H](NC(=O)CCCO[C@H]4CC[C@H](OCCNC(=O)[C@H]5CC(=O)N(C)[C@@H]5c5cccnc5)CC4)CC3)nc3ccc(C(F)(F)F)cc23)C1=O [Example 3, (2S,3S)-N-(2-(((1R,4S)-4-(4-(((1S,4R)-4-((4-(4-(((S)-1-((1S,2R,4R)-2-Acetamido-4-(tert-butylamino)cyclohexyl)-2-oxopyrrolidin-3-yl)amino)-6-(trifluoromethyl)quinazolin-2-yl)butyl)carbamoyl)cyclohexyl)amino)-4-oxobutoxy)cyclohexyl)oxy)ethyl)-1-methyl-5-oxo-2-(pyridin-3-yl)pyrrolidine-3-carboxamide] | 38 | > 33.3 | 0.158
2 | CC(=O)N[C@@H]1C[C@H](NC(C)(C)C)CC[C@@H]1N1CC[C@H](Nc2nc([C@H]3CC[C@@H](NC(=O)[C@H]4CC[C@H](NC(=O)CCCO[C@H]5CC[C@H](OCCNC(=O)[C@H]6CC(=O)N(C)[C@@H]6c6cccnc6)CC5)CC4)CC3)nc3ccc(C(F)(F)F)cc23)C1=O [Example 10, (2S,3S)-N-(2-(((1R,4S)-4-(4-(((1R,4R)-4-(((1R,4S)-4-(4-(((S)-1-((1S,2R,4R)-2-Acetamido-4-(tert-butylamino)cyclohexyl)-2-oxopyrrolidin-3-yl)amino)-6-(trifluoromethyl)quinazolin-2-yl)cyclohexyl)carbamoyl)cyclohexyl)amino)-4-oxobutoxy)cyclohexyl)oxy)ethyl)-1-methyl-5-oxo-2-(pyridin-3-yl)pyrrolidine-3-carboxamide] | 28 | > 33.3 | 0.251
3 | CC(=O)N[C@@H]1C[C@H](NC(C)(C)C)CC[C@@H]1N1CC[C@H](Nc2nc([C@H]3CC[C@H](NC(=O)[C@H]4CC[C@H](NC(=O)CCCO[C@H]5CC[C@H](OCCNC(=O)[C@H]6CC(=O)N(C)[C@@H]6c6cccnc6)CC5)CC4)CC3)nc3ccc(C(F)(F)F)cc23)C1=O [Example 11, (2S,3S)-N-(2-(((1R,4S)-4-(4-(((1S,4R)-4-(((1S,4R)-4-(4-(((S)-1-((1S,2R,4R)-2-Acetamido-4-(tert-butylamino)cyclohexyl)-2-oxopyrrolidin-3-yl)amino)-6-(trifluoromethyl)quinazolin-2-yl)cyclohexyl)carbamoyl)cyclohexyl)amino)-4-oxobutoxy)cyclohexyl)oxy)ethyl)-1-methyl-5-oxo-2-(pyridin-3-yl)pyrrolidine-3-carboxamide] | 47 | > 33.3 | 0.158

From US20250057958A1, “CYTOTOXICITY TARGETING CHIMERAS FOR CCR2-EXPRESSING CELLS” (GLAXOSMITHKLINE INTELLECTUAL PROPERTY DEVELOPMENT LIMITED, priority 2022, published 2025)
